# Experimental data from patent US10906977B2, “Enhancing the therapeutic activity of immune checkpoint inhibitor” (Maine Medical Center Research Institute, priority 2016, dated 2021).
# Legend:
# Fak = Fak phosphorylation in endothelial cells attached to collagen peptides; type: cell-based, human; details: serum free conditions
# Method: Whole cell and CAM tissue lysates were collected in RIPA buffer supplemented with 1× protease inhibitor and 1× phosphatase inhibitor and were run on polyacrylamide gels using denaturing conditions. Prior to loading the gels, 6× sample buffer was added to each of the lysates (final concentration 1×) and boiled for five minutes. Twenty to 50 μg of total protein were loaded into each lane. For detection of proteins larger than 50 kD, 10% gels were used; for proteins smaller than 50 kD 15% gels were used. Gels were run at 60 volts (v) until the dye front passed through the stacking gel, and then the voltage was increased to 100V for the remainder of the separation. Precision Plus protein standards (Bio-Rad) were used to visualize migration. Protein was transferred to nitrocellulose membranes using a wet tank system and blocked for 1 h using 10% non-fat dried milk in tris-buffered saline with 0.01% Tween-20 (TBS-T). […] Western blot bands were quantified using Image J software based on pixel intensity.
# [1] = tested on: endothelial cells transduced with YAP specific or non-specific shRNAs; assay: Growth of shRNA transduced endothelial cells with soluble RGD peptides; type: cell-based, human
# Method: (§1) HUVECs (WT, shYAP1 or control transfected) or HRMVECs were plated at 2,000 cells per well with complete EGM-2 media containing 2.0% FBS in the absence or presence of P-1, P-2 or P-C (100 ng/ml) and allowed to grow for 24 hours. Cell growth was monitored using a BrdU or MMT assay kits according to manufacturer's instructions. All assays were completed at least three times in triplicate wells.
# Raw cells were transfected with 1 μg of HuSH shRNA plasmids for collagen type I, alpha 2 using Amaxa cell line nucleofector kit V (program #T024). Constructs expressing 21-nucleotide short hairpin RNAs (shRNA) targeting human YAP (shYAP) or non-targeting control (shNT, Sigma-Aldrich, SHC002) were used. Humantargeting shYAP1 lentiviral shRNA was obtained from the Thermo Scientific RNAi consortium (TRCN0000107625). Constructs were packaged into lentivirus, pseudotyped with the vesicular stomatitis virus glycoprotein. Transduction was performed by incubating cells with lentivirus, and stably transduced cells were subsequently used for studies. All cell lines were verified by morphology and mouse and human YAP-specific PCR. […] Endothelial cells were certified mycoplasma-negative by PCR (Lonza), and primary cell cultures were used within the indicated passage numbers. Cells were transduced and selected using puromycin.
# Src = Src phosphorylation in endothelial cells attached to collagen peptides (Western blot); type: cell-based, human; details: FIG. 7D
# Method: (§2) Whole cell and CAM tissue lysates were collected in RIPA buffer supplemented with 1× protease inhibitor and 1× phosphatase inhibitor and were run on polyacrylamide gels using denaturing conditions. Prior to loading the gels, 6× sample buffer was added to each of the lysates (final concentration 1×) and boiled for five minutes. Twenty to 50 μg of total protein were loaded into each lane. […] Gels were run at 60 volts (v) until the dye front passed through the stacking gel, and then the voltage was increased to 100V for the remainder of the separation. Precision Plus protein standards (Bio-Rad) were used to visualize migration. Protein was transferred to nitrocellulose membranes using a wet tank system and blocked for 1 h using 10% non-fat dried milk in tris-buffered saline with 0.01% Tween-20 (TBS-T). […] Membranes were washed 3 times in TBS-T for five minutes. Blots were then incubated with HRP conjugated secondary antibodies (1:15000) in 1% non-fat milk in TBS-T for 1 h. Membranes were washed a second time as indicated above and exposed to chemiluminecent substrate for three minutes prior to exposure to autoradiography film in a dark room. Western blot bands were quantified using Image J software based on pixel intensity.
# HRMVEC = assay: Endothelial cell proliferation with soluble RGD peptides; type: cell-based, human; details: 100 ng/ml, 24 hours; FIG. 8D
# Method: as §1
# HUVEC = assay: as above; type: cell-based, human; details: 100 ng/ml, 24 hours; FIG. 8C
# Method: as §1
# [2] = tested on: chick chorioallantoic membrane (CAM); assay: Chick CAM inflammation induced by soluble RGD collagen peptides; type: in vivo; details: FIG. 5D
# Method: The chick chorioallantoic membrane (CAM) assays were carried out with some modifications (19). For all experiments CAMs of 10-day-old chick embryos obtained from Charles River (North Franklin, Conn.) were separated from the shell membrane. Filter discs either non-treated (inflammation assays) pretreated (angiogenesis assays) with cortisone acetate (3.0 mg/ml) containing RPMI only or FGF-2 (40 ng). CAMs were either non-treated or treated topically with Mab XL313, XL166 or a non-specific control antibody (10 μg/embryo every 24 h for three consecutive treatments). […] At the end of the incubation period the embryos were sacrificed and the CAM tissues were analyzed. Angiogenesis was quantified by counting the number of angiogenic branching blood vessels within the area of the filter disc. The angiogenic index was determined by subtracting the mean number of blood vessel branch points from untreated CAMs from each experimental condition. Eight to twelve embryos were used per condition and experiments were repeated at least three times.
# YAP = assay: Nuclear YAP in endothelial cells attached to collagen peptides; type: cell-based, human
# Method: as §2
# integrin αvβ3 = target: T1, integrin αvβ3 (Homo sapiens, UniProt P05106+P06756); assay: Solid phase ELISA, recombinant integrin αvβ3 binding to immobilized peptide P-2; details: peptide immobilized 100 μg/ml; FIG. 30
# T1 construct: purchased R&D Systems (Minneapolis, Minn.)
# T1 sequence (P06756 31-992 limits assumed): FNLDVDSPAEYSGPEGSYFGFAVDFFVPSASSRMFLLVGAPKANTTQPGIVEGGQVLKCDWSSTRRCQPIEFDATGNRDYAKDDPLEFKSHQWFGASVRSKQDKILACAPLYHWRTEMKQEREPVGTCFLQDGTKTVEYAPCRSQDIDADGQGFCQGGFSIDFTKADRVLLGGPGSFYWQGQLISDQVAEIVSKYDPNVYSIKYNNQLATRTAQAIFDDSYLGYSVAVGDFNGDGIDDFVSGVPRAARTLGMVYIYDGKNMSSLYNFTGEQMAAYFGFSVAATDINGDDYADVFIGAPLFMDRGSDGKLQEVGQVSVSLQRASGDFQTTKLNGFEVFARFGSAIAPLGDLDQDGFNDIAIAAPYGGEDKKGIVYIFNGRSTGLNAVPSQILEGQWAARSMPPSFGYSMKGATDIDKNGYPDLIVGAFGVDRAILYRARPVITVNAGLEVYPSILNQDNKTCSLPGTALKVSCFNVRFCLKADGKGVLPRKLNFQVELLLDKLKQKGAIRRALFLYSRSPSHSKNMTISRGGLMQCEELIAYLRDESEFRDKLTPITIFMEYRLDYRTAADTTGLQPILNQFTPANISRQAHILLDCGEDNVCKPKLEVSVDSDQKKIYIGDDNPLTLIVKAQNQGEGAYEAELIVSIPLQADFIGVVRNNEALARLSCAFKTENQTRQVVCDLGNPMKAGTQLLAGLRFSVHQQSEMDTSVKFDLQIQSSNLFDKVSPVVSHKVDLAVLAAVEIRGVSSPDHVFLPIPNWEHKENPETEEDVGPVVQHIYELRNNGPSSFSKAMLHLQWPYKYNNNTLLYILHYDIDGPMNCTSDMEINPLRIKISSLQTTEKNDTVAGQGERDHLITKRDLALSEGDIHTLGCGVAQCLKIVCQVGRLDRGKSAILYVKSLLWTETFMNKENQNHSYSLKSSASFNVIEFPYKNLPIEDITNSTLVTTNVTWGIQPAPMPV
# T1 sequence (P05106 27-718 limits assumed): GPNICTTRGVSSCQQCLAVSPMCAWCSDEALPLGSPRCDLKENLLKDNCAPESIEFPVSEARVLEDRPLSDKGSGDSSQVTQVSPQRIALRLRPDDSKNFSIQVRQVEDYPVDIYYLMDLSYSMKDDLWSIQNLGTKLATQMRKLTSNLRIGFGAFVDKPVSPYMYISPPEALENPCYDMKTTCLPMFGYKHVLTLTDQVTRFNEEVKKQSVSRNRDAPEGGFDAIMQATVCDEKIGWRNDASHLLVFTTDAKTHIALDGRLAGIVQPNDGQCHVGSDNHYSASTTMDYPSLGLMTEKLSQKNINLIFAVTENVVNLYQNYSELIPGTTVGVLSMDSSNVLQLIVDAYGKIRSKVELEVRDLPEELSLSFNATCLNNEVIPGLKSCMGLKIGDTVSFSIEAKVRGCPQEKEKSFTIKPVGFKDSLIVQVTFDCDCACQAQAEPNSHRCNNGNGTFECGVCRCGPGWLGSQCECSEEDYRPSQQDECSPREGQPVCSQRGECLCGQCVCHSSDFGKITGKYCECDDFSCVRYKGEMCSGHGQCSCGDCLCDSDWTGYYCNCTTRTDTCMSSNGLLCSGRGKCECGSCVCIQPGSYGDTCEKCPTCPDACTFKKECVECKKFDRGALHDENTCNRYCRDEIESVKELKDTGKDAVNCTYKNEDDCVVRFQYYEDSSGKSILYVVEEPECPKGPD
# Method: The cryptic collagen peptide P-2 was immobilized (100 μg/ml) on microtiter wells and increasing concentrations of recombinant integrin αvβ3 was added and integrin binding was quantified. Data bars indicate mean integrin binding±standard deviation from triplicate wells.
# The cryptic collagen peptide P-2 was immobilized (100 μg/ml) on microtiter wells and recombinant integrin αvβ3 was added and it was allowed to bind in the presence (50 μg/ml) or absence of Mab X1313 or control antibody (Mab XL166 directed to other collagen RGD peptides). Data bars indicate mean integrin binding±standard deviation from triplicate wells.
sequence,measurement,setting,value
CQGPRGDKGEC [Mab P-2],Fak phosphorylation following ligation of peptide,Fak,Minimal Fak phosphorylation
same,growth of endothelial cells in which YAP was knocked down,"[1]; YAP specific shRNA, FIG. 8H",failed to induce growth
same,growth of control transduced endothelial cells with soluble peptide,"[1]; non-specific shRNA, FIG. 8G",enhanced growth
same,enhancement of Src phosphorylation as compared to P-1,Src,~2 fold
same,HRMVEC growth with soluble peptide,HRMVEC,enhanced endothelial cell growth
same,HUVEC growth with soluble peptide,HUVEC,enhanced endothelial cell growth
same,CAM inflammation following stimulation with peptide,[2],induced inflammation to nearly that of FGF-2 stimulation
same,nuclear localized YAP (staining) as compared to P-1,"YAP; by 15 minutes, FIG. 8A",enhanced level of nuclear localized YAP
same,increase of nuclear YAP as compared to P-1 (Western blot),"YAP; cells attached to peptide, FIG. 8B",approximately 2 fold
same,binding of integrin receptor αvβ3 to peptide,integrin αvβ3,dose-dependently binds
